Tests used:
Experiment in all cases: KinaseProfiler Assay
Src(1-530)(h) = Src(1-530)(h) (Homo sapiens, UniProt P12931)
DAPK2(h) = DAPK2(h) (Homo sapiens, UniProt Q9UIK4)
Abl(m) = Abl(m) (Mus musculus, UniProt P00520)
Flt1(h) = Flt1(h) (Homo sapiens, UniProt P17948)
EphA8(h) = target: T1, EphA8(h) (Homo sapiens, UniProt P29322)
T1 sequence (P29322 28-1005): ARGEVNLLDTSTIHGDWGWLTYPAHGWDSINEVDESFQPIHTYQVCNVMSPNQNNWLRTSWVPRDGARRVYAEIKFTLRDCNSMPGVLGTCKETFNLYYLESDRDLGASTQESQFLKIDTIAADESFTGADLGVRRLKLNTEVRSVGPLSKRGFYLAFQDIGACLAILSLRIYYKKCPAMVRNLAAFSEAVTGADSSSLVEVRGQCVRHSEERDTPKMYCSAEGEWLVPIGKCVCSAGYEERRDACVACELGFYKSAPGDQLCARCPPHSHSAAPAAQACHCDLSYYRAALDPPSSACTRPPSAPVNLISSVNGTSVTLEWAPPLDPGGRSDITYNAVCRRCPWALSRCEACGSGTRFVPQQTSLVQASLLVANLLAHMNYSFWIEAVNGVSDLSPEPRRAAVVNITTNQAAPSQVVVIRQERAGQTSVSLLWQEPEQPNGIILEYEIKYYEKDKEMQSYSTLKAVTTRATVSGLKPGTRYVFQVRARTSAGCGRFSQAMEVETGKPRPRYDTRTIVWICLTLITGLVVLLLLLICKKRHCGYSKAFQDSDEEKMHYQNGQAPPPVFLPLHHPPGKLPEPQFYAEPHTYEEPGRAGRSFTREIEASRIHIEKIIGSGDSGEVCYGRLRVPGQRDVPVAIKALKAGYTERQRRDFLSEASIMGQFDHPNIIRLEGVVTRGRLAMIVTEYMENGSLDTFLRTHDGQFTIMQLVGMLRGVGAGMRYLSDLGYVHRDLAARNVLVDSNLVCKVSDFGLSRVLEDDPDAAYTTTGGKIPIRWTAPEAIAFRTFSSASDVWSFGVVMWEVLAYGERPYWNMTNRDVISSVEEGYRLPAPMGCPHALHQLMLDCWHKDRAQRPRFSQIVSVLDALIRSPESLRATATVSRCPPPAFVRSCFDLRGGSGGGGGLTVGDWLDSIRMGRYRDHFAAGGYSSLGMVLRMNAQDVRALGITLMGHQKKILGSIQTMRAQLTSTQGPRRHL

Lck(h) = Lck(h) (Homo sapiens, UniProt P06239)
CDK2/cyclinE(h) = CDK2/cyclinE(h) (Homo sapiens, UniProt P24941)

Sequence of Src(1-530)(h) (P12931 1-530): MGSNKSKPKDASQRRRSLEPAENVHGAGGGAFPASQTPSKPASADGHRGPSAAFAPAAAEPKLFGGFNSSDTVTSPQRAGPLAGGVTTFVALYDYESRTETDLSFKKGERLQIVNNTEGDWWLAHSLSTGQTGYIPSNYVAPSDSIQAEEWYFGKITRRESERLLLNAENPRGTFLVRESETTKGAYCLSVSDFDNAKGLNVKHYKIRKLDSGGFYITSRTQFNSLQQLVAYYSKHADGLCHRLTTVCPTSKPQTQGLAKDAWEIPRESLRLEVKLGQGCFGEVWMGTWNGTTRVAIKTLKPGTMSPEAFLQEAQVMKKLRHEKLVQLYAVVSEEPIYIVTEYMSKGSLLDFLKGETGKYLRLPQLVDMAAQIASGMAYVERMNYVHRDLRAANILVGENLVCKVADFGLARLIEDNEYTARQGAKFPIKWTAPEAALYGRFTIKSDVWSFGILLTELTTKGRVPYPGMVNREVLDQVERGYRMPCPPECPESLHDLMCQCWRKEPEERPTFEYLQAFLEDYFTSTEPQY
Sequence of DAPK2(h) (Q9UIK4 whole entry): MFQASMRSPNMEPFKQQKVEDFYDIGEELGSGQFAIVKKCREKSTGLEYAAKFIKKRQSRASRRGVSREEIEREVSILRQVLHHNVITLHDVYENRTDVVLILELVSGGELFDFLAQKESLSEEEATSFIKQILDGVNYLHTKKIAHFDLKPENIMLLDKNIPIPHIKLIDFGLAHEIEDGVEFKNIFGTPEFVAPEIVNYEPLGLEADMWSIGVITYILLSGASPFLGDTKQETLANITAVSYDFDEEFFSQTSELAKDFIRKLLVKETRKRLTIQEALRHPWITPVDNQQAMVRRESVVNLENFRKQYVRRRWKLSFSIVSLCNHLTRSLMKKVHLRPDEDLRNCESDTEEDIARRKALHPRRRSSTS
Sequence of Abl(m) (P00520 whole entry): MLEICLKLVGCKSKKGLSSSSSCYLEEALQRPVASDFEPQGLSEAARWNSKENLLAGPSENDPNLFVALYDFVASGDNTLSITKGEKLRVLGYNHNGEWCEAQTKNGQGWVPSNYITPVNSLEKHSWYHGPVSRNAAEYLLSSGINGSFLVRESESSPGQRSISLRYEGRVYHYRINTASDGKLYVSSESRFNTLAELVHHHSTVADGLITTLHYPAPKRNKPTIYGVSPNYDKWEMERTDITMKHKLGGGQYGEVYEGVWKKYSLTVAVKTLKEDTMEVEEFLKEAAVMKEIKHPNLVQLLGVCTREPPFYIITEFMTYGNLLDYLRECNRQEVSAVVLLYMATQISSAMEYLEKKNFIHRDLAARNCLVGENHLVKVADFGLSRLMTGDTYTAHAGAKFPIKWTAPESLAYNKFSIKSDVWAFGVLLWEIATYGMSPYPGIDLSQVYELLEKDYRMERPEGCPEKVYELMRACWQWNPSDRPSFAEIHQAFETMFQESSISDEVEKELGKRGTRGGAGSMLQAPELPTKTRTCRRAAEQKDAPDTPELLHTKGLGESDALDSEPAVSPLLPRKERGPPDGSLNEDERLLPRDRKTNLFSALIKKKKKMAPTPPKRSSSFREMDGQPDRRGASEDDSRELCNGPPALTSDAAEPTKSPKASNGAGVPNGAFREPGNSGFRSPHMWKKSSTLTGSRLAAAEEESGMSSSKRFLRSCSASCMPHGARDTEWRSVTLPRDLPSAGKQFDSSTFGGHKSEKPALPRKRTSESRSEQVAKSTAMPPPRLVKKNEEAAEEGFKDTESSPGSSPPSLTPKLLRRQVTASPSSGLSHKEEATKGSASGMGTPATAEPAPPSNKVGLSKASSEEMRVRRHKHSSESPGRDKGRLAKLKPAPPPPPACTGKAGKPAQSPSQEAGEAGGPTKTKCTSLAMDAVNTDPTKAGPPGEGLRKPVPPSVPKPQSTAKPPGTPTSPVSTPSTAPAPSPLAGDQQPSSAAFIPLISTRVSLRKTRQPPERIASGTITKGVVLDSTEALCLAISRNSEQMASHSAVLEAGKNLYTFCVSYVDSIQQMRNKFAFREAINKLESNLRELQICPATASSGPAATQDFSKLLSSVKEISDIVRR
Sequence of Lck(h) (P06239 whole entry): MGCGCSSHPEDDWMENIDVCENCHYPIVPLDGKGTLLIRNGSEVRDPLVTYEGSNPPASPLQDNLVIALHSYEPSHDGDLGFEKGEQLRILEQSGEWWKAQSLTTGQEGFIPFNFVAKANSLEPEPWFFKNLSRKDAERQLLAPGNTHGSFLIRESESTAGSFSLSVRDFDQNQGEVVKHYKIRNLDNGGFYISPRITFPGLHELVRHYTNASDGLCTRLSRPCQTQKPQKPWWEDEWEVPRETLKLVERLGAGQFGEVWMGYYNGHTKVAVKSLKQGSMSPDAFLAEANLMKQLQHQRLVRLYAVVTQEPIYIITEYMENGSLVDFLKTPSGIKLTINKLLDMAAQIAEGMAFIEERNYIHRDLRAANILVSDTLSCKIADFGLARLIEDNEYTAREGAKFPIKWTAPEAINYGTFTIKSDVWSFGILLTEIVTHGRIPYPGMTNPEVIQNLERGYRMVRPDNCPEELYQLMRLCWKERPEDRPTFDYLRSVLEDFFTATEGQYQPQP
Sequence of Flt1(h) (P17948 27-1338): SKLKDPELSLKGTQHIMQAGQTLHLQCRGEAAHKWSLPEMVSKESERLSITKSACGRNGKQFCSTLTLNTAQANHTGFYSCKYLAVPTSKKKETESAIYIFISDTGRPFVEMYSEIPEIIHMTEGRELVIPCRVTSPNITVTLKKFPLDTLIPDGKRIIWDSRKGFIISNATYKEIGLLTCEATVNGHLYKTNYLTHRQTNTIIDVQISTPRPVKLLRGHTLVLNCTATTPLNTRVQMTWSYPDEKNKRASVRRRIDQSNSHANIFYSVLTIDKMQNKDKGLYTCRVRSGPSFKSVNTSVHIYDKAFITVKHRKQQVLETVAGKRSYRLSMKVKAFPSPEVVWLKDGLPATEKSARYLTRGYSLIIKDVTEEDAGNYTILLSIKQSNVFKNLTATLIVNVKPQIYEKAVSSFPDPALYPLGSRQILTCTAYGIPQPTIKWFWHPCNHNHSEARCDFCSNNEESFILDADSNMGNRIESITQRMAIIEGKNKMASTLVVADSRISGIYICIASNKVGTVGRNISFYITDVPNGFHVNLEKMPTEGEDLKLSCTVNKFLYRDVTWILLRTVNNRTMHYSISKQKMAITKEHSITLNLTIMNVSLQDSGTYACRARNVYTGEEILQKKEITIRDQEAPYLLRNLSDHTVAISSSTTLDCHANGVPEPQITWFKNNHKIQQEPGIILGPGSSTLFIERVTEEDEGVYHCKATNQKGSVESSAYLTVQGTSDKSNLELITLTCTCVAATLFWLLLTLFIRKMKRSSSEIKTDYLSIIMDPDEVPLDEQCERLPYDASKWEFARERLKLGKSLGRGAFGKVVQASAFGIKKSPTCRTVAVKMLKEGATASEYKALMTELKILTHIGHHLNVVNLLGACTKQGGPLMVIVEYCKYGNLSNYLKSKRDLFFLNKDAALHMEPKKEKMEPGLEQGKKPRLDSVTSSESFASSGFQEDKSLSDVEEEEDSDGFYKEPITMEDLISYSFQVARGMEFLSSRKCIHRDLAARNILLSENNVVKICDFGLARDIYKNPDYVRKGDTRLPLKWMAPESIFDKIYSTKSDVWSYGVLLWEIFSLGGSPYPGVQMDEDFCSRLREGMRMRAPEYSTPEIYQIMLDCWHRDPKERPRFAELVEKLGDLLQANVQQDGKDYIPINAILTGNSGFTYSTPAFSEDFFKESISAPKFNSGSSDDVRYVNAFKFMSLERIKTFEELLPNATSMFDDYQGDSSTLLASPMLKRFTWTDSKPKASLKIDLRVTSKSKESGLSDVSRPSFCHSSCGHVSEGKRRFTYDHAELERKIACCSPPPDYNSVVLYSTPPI

## CC(C)CCC(=O)[C@]1(O)C(O)=C(C(=O)C(C)C)C(=O)[C@H]1CCC(C)C [TH2, tetrahydroiso-cohumulone]
Src(1-530)(h); 1 μg/ml
  kinase inhibition: 103% of control
Src(1-530)(h); 5 μg/ml
  kinase inhibition: 105% of control
Src(1-530)(h); 25 μg/ml
  kinase inhibition: 105% of control
Src(1-530)(h); 50 μg/ml
  kinase inhibition: 102% of control
Src(1-530)(h); 100 μg/ml
  kinase inhibition: 75% of control
DAPK2(h); 1 μg/ml
  kinase inhibition: 61% of control
DAPK2(h); 5 μg/ml
  kinase inhibition: 56% of control
DAPK2(h); 25 μg/ml
  kinase inhibition: 55% of control
DAPK2(h); 50 μg/ml
  kinase inhibition: 52% of control
DAPK2(h); 100 μg/ml
  kinase inhibition: 49% of control
Abl(m); 1 μg/ml
  kinase inhibition: 98% of control
Abl(m); 5 μg/ml
  kinase inhibition: 91% of control
Abl(m); 25 μg/ml
  kinase inhibition: 69% of control
Abl(m); 50 μg/ml
  kinase inhibition: 32% of control
Abl(m); 100 μg/ml
  kinase inhibition: 48% of control
Flt1(h); 1 μg/ml
  kinase inhibition: 102% of control
Flt1(h); 5 μg/ml
  kinase inhibition: 97% of control
Flt1(h); 25 μg/ml
  kinase inhibition: 103% of control
Flt1(h); 50 μg/ml
  kinase inhibition: 102% of control
Flt1(h); 100 μg/ml
  kinase inhibition: 98% of control
EphA8(h); 1 μg/ml
  kinase inhibition: 118% of control
EphA8(h); 5 μg/ml
  kinase inhibition: 99% of control
EphA8(h); 25 μg/ml
  kinase inhibition: 112% of control
EphA8(h); 50 μg/ml
  kinase inhibition: 101% of control
EphA8(h); 100 μg/ml
  kinase inhibition: 100% of control
Lck(h); 1 μg/ml
  kinase inhibition: 106% of control
Lck(h); 5 μg/ml
  kinase inhibition: 111% of control
Lck(h); 25 μg/ml
  kinase inhibition: 86% of control
Lck(h); 50 μg/ml
  kinase inhibition: 83% of control
Lck(h); 100 μg/ml
  kinase inhibition: 78% of control
CDK2/cyclinE(h); 1 μg/ml
  kinase inhibition: 95% of control
CDK2/cyclinE(h); 5 μg/ml
  kinase inhibition: 101% of control
CDK2/cyclinE(h); 25 μg/ml
  kinase inhibition: 93% of control
CDK2/cyclinE(h); 50 μg/ml
  kinase inhibition: 71% of control
CDK2/cyclinE(h); 100 μg/ml
  kinase inhibition: 54% of control
